pIC50: −log10 of the molar value.

Sodium channel protein type 10 subunit alpha, sequence (Q9Y5Y9 whole entry): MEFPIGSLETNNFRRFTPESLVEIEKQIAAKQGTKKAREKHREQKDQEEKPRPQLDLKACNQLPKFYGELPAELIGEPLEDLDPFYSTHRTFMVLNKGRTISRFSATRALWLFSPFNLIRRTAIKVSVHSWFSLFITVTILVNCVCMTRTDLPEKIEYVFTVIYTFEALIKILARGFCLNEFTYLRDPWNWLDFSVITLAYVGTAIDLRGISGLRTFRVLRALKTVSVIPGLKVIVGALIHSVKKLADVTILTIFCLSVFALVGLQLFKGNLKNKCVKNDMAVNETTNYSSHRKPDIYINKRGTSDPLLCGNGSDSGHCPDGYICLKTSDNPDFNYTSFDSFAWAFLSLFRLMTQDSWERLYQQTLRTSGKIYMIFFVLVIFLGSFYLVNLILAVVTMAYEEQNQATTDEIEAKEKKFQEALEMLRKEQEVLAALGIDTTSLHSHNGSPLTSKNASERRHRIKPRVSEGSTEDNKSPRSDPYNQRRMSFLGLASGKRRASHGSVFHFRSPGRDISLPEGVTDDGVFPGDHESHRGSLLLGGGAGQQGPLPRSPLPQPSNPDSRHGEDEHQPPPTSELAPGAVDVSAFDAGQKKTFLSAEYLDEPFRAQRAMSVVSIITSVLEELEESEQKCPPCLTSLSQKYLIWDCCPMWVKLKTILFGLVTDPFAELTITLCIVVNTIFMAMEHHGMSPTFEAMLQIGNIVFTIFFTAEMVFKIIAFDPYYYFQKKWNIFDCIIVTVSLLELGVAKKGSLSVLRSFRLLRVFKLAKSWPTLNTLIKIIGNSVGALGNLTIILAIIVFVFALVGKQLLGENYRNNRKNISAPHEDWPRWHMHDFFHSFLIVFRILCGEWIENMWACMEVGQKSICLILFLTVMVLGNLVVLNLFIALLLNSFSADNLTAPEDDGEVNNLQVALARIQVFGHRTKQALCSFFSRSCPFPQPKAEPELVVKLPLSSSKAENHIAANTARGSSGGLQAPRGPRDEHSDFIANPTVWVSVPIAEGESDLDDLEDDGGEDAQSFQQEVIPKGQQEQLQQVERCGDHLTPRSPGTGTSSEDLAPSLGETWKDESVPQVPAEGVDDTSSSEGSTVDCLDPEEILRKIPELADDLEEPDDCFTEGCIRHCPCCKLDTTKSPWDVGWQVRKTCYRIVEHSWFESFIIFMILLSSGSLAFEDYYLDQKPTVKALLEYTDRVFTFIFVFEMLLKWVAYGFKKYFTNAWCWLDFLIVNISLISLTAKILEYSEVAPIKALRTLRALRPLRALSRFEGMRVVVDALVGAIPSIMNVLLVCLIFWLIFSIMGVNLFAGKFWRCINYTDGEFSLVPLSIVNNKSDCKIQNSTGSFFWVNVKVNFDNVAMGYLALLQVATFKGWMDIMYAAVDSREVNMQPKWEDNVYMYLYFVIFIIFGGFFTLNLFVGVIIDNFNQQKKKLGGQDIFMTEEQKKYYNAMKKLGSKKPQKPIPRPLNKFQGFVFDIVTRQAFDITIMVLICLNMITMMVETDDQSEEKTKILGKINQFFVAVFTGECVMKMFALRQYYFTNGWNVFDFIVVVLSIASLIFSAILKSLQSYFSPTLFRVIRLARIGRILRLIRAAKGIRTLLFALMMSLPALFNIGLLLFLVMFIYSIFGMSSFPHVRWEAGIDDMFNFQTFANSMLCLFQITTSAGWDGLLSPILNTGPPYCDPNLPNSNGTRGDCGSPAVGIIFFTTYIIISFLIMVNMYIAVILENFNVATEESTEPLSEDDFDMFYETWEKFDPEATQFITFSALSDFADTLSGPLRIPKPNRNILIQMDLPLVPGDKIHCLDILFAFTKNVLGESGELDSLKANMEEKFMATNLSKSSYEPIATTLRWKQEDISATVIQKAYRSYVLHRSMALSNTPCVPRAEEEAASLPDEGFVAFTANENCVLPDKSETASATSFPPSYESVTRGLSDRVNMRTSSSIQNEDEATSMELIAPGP

For the test, the target named is Sodium channel protein type 10 subunit alpha (Homo sapiens, UniProt Q9Y5Y9). The experiment in a line: Electrophysiological Assay. The procedure:
A capillary glass pipette (BF150-86-10, Sutter Instruments) was pulled into a recording electrode with a micropipette puller (P97, Sutter Instruments). The micromanipulator (MP285, Sutter Instruments) was manipulated under an inverted microscope (IX71, Olympus) to make the recording electrode contact the cell and negative pressure suction was applied to achieve a GQ seal. Then, rapid capacitance compensation was performed, and negative pressure was continued, cell membrane was broken by suction, and whole cell recording mode was formed. Then the slow capacitance was compensated and the membrane capacitance and series resistance were recorded without leakage compensation. When the whole cell recording current was stabilized, dosing was initiated, and the next concentration was detected after acting 5 minutes of each drug concentration. Multiple cells were independently repeated during the recording period. All electrophysiological assays were performed at room temperature. Specifically, 6 concentrations (measuring IC50) or 2 concentrations (preliminary screening) were set for each compound, and the percentage of inhibition of sodium channels was determined by calculating the relative percentage of peak current generated before and after each concentration compound treated cells, and the IC50 value or percentage of inhibition at a specific concentration was calculated using IGOR pro software.
With `O=C(Nc1ccc[n+]([O-])c1)c1nc2ccccc2nc1N1CCCC(F)(F)CC1` [US20250115578, KH01], the pIC50 – broadly, the negative decadic logarithm of the IC50, by convention in mol/L – was under 7.00.

As for `O=C(Nc1cc[nH]c(=O)c1)c1nc2ccccc2nc1N1CCCC(F)(F)CC1` [US20250115578, KH03], the pIC50 is under 8.00. Under `O=C(Nc1cn[nH]c(=O)c1)c1nc2ccccc2nc1N1CCCC(F)(F)CC1` [US20250115578, KH04] stands 7.18.

The values above are taken from BindingDB's records for patent US20250115578 (Chengdu Kanghong Pharmaceutical, 2025).
